Measurements published in patent US12150933B2, “IL-8 inihibitors for use in the treatment of some urological disorders” (DOMPÉ FARMACEUTICI S.P.A., priority 2015, dated 2024).
Where a name gives a salt, the structure may show the parent alone.

Columns and labels:
[1] = system: CYP-induced visceral pain; assay: Acute administration in CYP-induced visceral pain in rats (Von Frey mechanical threshold); format: in vivo, rat; conditions: 2 hours after administration, versus pre-treatment
Experimental: Female Sprague Dawley rats (Crl:CD(SD)BR, 250-350 g) from Charles River Italy were used in these experiments. Animals were housed with free access to food and water and maintained on a forced 12 hours light-dark cycle at 22-24° C. for at least one week before the experiments were carried out. The animals were handled according to internationally accepted principles for care of laboratory animals (E.E.C. Council Directive 86/609, […]. 18, 1986). Cyclophosphamide, 75 mg/kg i.p. for 3 times, every 3rd day, was dissolved in distilled water and administered to animals by i.p. route (volume 5 mL/kg). Appropriate weight of Compd. 1 or Compd. 2 was dissolved in saline, all doses of test compounds were administered by oral gavage (volume 2 mL/kg). On the day of the experiment, each rat was placed individually in a clear plastic testing box with a grid floor and allowed to acclimatize for at least 10 min. Visceral sensitivity in response to mechanical stimuli was determined using Von Frey monofilaments (1-2-4-8-15-26-60-100 g) applied in the lower abdominal area (close to the urinary bladder) and on both hind paws plantar surface (to evaluate referred pain). Each Von Frey monofilament was applied 5 times at the level of abdomen and 3 times at the level of each paw, in an ascending order of strength at interval of 5 sec. A stimulus-induced response was considered positive when the paw was sharply withdrawn, paw licking occurred, or the animal flinched upon removal of the filament. Behavioral testing on animals was performed at 3 different times: • before CYP administration (in order to acquire basal values) • after CYP administration, before treatment with the test compound, to verify the pathology (in order to acquire pre-treatment values) • after CYP administration, after treatment (in order to acquire post-treatment values) […] The test was performed in blind. Compd. 1 and Compd. […]

CYP-induced cystitis [2] = assay: Cystometrographic recordings in conscious rats with CYP-induced cystitis; format: in vivo, rat; conditions: 24 hours after CYP 175 mg/kg i.p.
Experimental: Female Sprague Dawley rats (Crl:CD(SD)BR, 250-350 g bw) from Charles River Italy were used in these experiments. Animals were housed with free access to food and water and maintained on a forced 12 hours light-dark cycle at 22-24° C. for at least one week before the experiments were carried out.
Rats, anaesthetized with equithensin solution (2 ml/kg i.p.), were placed in a supine position and an approximately 10 mm midline incision was made in the shaved and cleaned abdominal wall. The urinary bladder was gently freed from adhering tissues, emptied and then cannulated, via an incision at the dome, with a polyethylene cannula (Portex, ID 0.58 mm, OD 0.96 mm), which was permanently sutured with silk thread. The cannula was exteriorized through a subcutaneous tunnel in the retroscapular area, where it was connected with a plastic adapter, in order to avoid the risk of removal by the animal.
For drugs testing, rats were utilized one day after catheter implantation at about 24 hours after administrations CYP.
On the day of the experiment, the rats (fasted overnight) were placed in Bollman's cages; after a stabilization period of 20 min, the free tip of the cannula was connected by a T-shape tube to a pressure transducer and to a peristaltic pump for a continuous infusion of saline solution (room temperature) into the urinary bladder, at the constant rate of 0.05 ml/min. This procedure, termed cystometry, allows the detection of continuous cycles of filling and voiding of the bladder named cystometrograms.
From the cystometrograms acquired by the Biopac System and recorded on a PC the Bladder Volume Capacity (BVC) parameter was calculated as volume capacity, defined as volume (in ml) infused into the bladder and necessary to induce detrusor contraction followed micturition.
Basal BVC was evaluated as mean values from the cystometrograms recorded in 30-60 minutes of time prior the treatment (“BASAL”). Then the bladder infusion was stopped, the animals were treated orally with the test compound or vehicle and, after restarting continuous bladder filling with saline for 4 or 5 hours, BVC values after administration were collected.
BVC parameters were recorded from the cystometrogram over a 4/5 hours period post-dose.

CXCR1/CXCR2 = conditions: cited from earlier work
[3] = system: CYP-induced visceral pain; assay: Chronic preventive treatment in CYP-induced visceral pain model in rats; comparison with Mesna; format: in vivo, rat; conditions: 12.5 mg/kg i.p. several times a day for 3 days
Experimental: The effect of chronic preventive administration of Compd. 1 in a visceral pain model induced by repeated administration of cyclophosphamide (CYP) in conscious rats was evaluated.
The oral dose of 7 mg/kg of Compd. 1 was chosen on the basis of previous evaluations. Compd. 1 or vehicle was orally administered to animals twice daily (according to the PK profile of the molecule) for 7 days. Mesna_or vehicle was intraperitoneally administered several times a day for 3 days (when CYP was administered).
Repeated treatment with CYP (75 mg/kg i.p. for 3 times, every 3rd day), induced a strong decrease in withdrawal thresholds to noxious stimulus measured at the level of low abdomen and hind-paws. Nociceptive hypersensitivity was evaluated. In the control group, nociceptive thresholds of abdomen and hind-paws were not altered after the treatment with vehicle.
Behavioral testing was performed at 4 different times: • before CYP administration (in order to acquire basal values) • after CYP administration and before treatment with the tested compound, to verify the pathology (in order to acquire pre-treatment values) • after treatment, 42 or 48 hours from the last administration of Compd. 1 or Mesna.

CYP-induced cystitis [4] = assay: Microscopic examination of urinary bladders after chronic preventive administration; format: in vivo, rat; conditions: preventive Mesna treatment
From the text: At the end of the study, the urinary bladders were opened, placed in 10% buffered formalin and stored at room temperature until completion of hystomorphological analysis (see Example 6 below).
At the end of the efficacy study of chronic preventive administration, the urinary bladders were opened, placed in 10% buffered formalin and stored at room temperature until hystomorphological analysis.
Treatment with Compd. […] 1.

[5] = system: CYP-induced visceral pain; assay: Chronic administration in CYP-induced visceral pain in rats (Von Frey withdrawal threshold); format: in vivo, rat; conditions: 40-80 mg/kg p.o., systemic
Experimental: Cyclophosphamide, 75 mg/kg i.p. for 3 times, every 3rd day, was dissolved in distilled water and administered to animals by i.p. route (volume 5 mL/kg). Appropriate weight of Compd. 1 or Compd. 2 was dissolved in saline, all doses of test compounds were administered by oral gavage (volume 2 mL/kg).
On the day of the experiment, each rat was placed individually in a clear plastic testing box with a grid floor and allowed to acclimatize for at least 10 min. Visceral sensitivity in response to mechanical stimuli was determined using Von Frey monofilaments (1-2-4-8-15-26-60-100 g) applied in the lower abdominal area (close to the urinary bladder) and on both hind paws plantar surface (to evaluate referred pain).
Each Von Frey monofilament was applied 5 times at the level of abdomen and 3 times at the level of each paw, in an ascending order of strength at interval of 5 sec. A stimulus-induced response was considered positive when the paw was sharply withdrawn, paw licking occurred, or the animal flinched upon removal of the filament.
• before CYP administration (in order to acquire basal values) • after CYP administration and before treatment, to verify the pathology (in order to acquire pre-treatment values) • after chronic treatment, about 18 hours after last administration of Compd. 1 (in order to acquire post-treatment values). • after chronic treatment, 2 hours after the last administration of Compd. 1 (in order to acquire post-treatment values after chronic+acute administration)
Compd. 1 or vehicle was administered p.o. to animals twice daily (according to the pharmacokinetic profile of the compound) for 6 days, starting from 24 hours after last treatment with CYP, when painful symptoms were well established. Nociceptive hypersensitivity was evaluated about 18 hours after the last administration of Compd. 1 (or vehicle) in order to evaluate the effect of chronic administration, or a further dosage of compound was administered and evaluation carried out 2 hours thereafter, in order to compare with acute protocol, described in Example 1.

SMILES: C[C@@H](C(=O)NS(C)(=O)=O)c1ccc(OS(=O)(=O)C(F)(F)F)cc1 [Compd. 2, R(−)-2-[(4′-trifluoromethanesulfonyloxy)phenyl]-N-methanesulfonyl propionamide]
- mechanical threshold, abdomen and hind paws ([1]; 10 mg/kg p.o.): statistically significant increase in mechanical threshold only in the abdomen
- mechanical threshold, abdomen and hind paws ([1]; 30 mg/kg p.o.): statistically significant increase in mechanical threshold in both the abdomen and paws area
- bladder volume capacity (BVC) (CYP-induced cystitis [2]; 20 mg/kg oral): showed efficacy on BVC
- bladder volume capacity (BVC) (CYP-induced cystitis [2]; 30 mg/kg oral): showed efficacy on BVC
- CXCR1/CXCR2 inhibition (CXCR1/CXCR2): potent and selective dual CXCR1/CXCR2 non-competitive allosteric inhibitor

SMILES: O=S(=O)(O)CCS [Mesna, 2-mercaptoethene sulfate, reference compound]
- CYP-induced nociceptive behavior [3]: did not produce a reduction of CYP-induced nociceptive behavior
- protective effect on the CYP-induced cystitis (CYP-induced cystitis [4]): did not exert any protective effect

SMILES: NCC1(CC(=O)O)CCCCC1 [gabapentin, reference compound]
- antinociceptive effect [5]: partial maximum antinociceptive effect
